Where two headings read alike, the source gives them in different places.
B1: CapA1 C-terminal juxtamembrane fragment (Val194 to Asn222), as it stands in the CapA1B1 chimera (domain or fragment)
chain: VIFDKRIKDEEDVEKELGLPVLGSIQKFN
notes: also called Cap5A1; source: E. coli BL21(DE3), purified (IMAC, gel filtration) as part of the chimera CapA1B1

Key:
[1] = molecular target: T1, CapB2 and CapA1Ct (GST-CapA1Ct) (Staphylococcus aureus, UniProt A8YPQ5+A8YPQ6); settings: 10 µM ATP, 5 mM MgCl2, pH 7.5, 37°C; labelled compound; GST-CapA1Ct(ΔN222) as activator
Target sequence in this assay (A8YPQ5 entry or part of it, one chain of several): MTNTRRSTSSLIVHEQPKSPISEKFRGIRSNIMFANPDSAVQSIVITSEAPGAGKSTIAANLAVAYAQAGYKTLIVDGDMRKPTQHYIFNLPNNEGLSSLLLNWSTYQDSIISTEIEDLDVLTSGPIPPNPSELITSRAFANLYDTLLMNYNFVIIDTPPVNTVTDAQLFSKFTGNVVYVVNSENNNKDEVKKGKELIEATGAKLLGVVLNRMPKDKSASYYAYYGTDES

[2] = molecular target: T1, CapB2 and CapA1Ct (GST-CapA1Ct); settings: 10 µM ATP, 5 mM MgCl2, pH 7.5, 37°C; labelled compound; GST-CapA1Ct as activator
Target sequence in this assay (A8YPQ5 entry or part of it, one chain of several): as above

[3] = molecular target: T2, CapB1 (Met1 to Glu228), as it stands in the CapA1B1 chimera (Staphylococcus aureus, UniProt A8YPQ8 1-228); assay: crystal structure; settings: both partners purified
T2 construct: also called Cap5B1; source: E. coli BL21(DE3), purified (IMAC, gel filtration) as part of the chimera CapA1B1
T2 sequence: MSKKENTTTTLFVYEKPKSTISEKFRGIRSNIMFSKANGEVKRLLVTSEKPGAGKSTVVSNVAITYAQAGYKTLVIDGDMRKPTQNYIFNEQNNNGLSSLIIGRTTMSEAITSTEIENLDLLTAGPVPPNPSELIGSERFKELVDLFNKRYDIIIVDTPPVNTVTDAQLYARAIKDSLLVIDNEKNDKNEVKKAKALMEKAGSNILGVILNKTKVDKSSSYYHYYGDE

Row | Molecule | autophosphorylation with [γ-32P]ATP, SDS-PAGE, autoradiography [1] | autophosphorylation with [γ-32P]ATP, SDS-PAGE, autoradiography [2] | binding result [3]
1 | Nc1ncnc2c1ncn2[C@@H]1O[C@H](COP(=O)(O)OP(=O)(O)OP(=O)(O)O)[C@@H](O)[C@H]1O [ATP] | the Asn222 deletion did not affect the CapA1 ability to trigger CapB2 autophosphorylation | CapB2 was incubated in the presence of radioactive ATP and different (wild type or mutated) | 
2 | B1 |  |  | binds

From PMC3795738 (PLoS ONE, 2013)
